These results are taken from patent US9018233B2, “Diaminoaryl derivatives substituted by carbamate and pesticidal composition containing same” (Kyung Nong Corporation, priority 2012, dated 2015).

This assay concerns Tobacco Cutworm Moth (Spodoptera litura). In words: Insecticidal activities against tobacco cutworm moth measured by leaf-dip method. Format: in vivo. Particulars: 96 h, read-out: percent control value. As for the experimental part: In this test, larvae descended from tobacco cutworm moths (Spodoptera litura), which had been collected in 2009 near Gyeongju area and reared in the laboratory, were used. […] […] The Petri dish was stored under light condition 16:8 hours, 25±1° C. and RH 50-60%, and then the number of larvae survived were counted 24, 48, 72 and 96 hours after the inoculation. As shown in Equations 1 and 2 above, the survival rate was calculated by calibrating the larvae density after treatment with the larvae density before treatment, and the control value is calculated by subtracting the survival rate in the treatment group from the survival rate in the control group and dividing the result by the survival rate in the control group.

Setting [1] is: 100 ppm, after 4 days, 2nd instar larvae, leaf-dip.

Molecules are shown by their SMILES. Where two headings read alike, the source gives them in different places.

In the case of `CC(C)COC(=O)Nc1cc(Cl)cc(Cl)c1NC(=O)c1cc(Br)nn1-c1ncccc1Cl` [Example 4, isobutyl (2-(3-bromo-1-(3-chloropyridin-2-yl)-1H-pyrazole-5-carboxamido)-3,5-dichlorophenyl)carbamate], under setting [1], the pest or weed control at 100 ppm is no less than 80%.
On the same count and under the same terms, the value for `COC(=O)Nc1cc(Cl)cc(C)c1NC(=O)c1cc(Br)nn1-c1ncccc1Cl` [Example 11, methyl (2-(3-bromo-1-(3-chloropyridin-2-yl)-1H-pyrazole-5-carboxamido)-5-chloro-3-methylphenyl)carbamate] was no less than 80%; that for `CCOC(=O)Nc1cc(Cl)cc(C)c1NC(=O)c1cc(Br)nn1-c1ncccc1Cl` [Example 21, ethyl (2-(3-bromo-1-(3-chloropyridin-2-yl)-1H-pyrazole-5-carboxamido)-5-chloro-3-methylphenyl)carbamate] was no less than 80%.
Same read-out and setting: in the case of `CCCOC(=O)Nc1cc(Cl)cc(C)c1NC(=O)c1cc(Br)nn1-c1ncccc1Cl` [Example 22, propyl (2-(3-bromo-1-(3-chloropyridin-2-yl)-1H-pyrazole-5-carboxamido)-5-chloro-3-methylphenyl)carbamate] it was no less than 80%; in that of `COC(=O)Nc1cc(C#N)cc(C)c1NC(=O)c1cc(Br)nn1-c1ncccc1Cl` [Example 33, methyl (2-(3-bromo-1-(3-chloropyridin-2-yl)-1H-pyrazole-5-carboxamido)-5-cyano-3-methylphenyl)carbamate], no less than 80%; in that of `COC(=O)Nc1cc(Br)cc(Br)c1NC(=O)c1cc(Br)nn1-c1ncccc1Cl` [Example 40, methyl (3,5-dibromo-2-(3-bromo-1-(3-chloropyridin-2-yl)-1H-pyrazole-5-carboxamido)phenyl)carbamate], no less than 80%.
As to `CC(C)COC(=O)Nc1cc(Br)cc(Br)c1NC(=O)c1cc(Br)nn1-c1ncccc1Cl` [Example 41, isobutyl (3,5-dibromo-2-(3-bromo-1-(3-chloropyridin-2-yl)-1H-pyrazole-5-carboxamido)phenyl)carbamate], the pest or weed control at 100 ppm under setting [1] was no less than 80%.
Take `COC(=O)Nc1cc(C(F)(F)F)cc(Cl)c1NC(=O)c1cc(Br)nn1-c1ncccc1Cl` [Example 48, methyl (2-(3-bromo-1-(3-chloropyridin-2-yl)-1H-pyrazole-5-carboxamido)-3-chloro-5-(trifluoromethyl)phenyl)carbamate]: under setting [1], the pest or weed control at 100 ppm is no less than 80%.
Regarding `COC(=O)Nc1cc(C(F)(F)F)cc(Br)c1NC(=O)c1cc(Br)nn1-c1ncccc1Cl` [Example 51, methyl (3-bromo-2-(3-bromo-1-(3-chloropyridin-2-yl)-1H-pyrazole-5-carboxamido)-5-(trifluoromethyl)phenyl)carbamate], the pest or weed control at 100 ppm under setting [1] was no less than 80%.
`COC(=O)Nc1cccc(C)c1NC(=O)c1cc(Br)nn1-c1ncccc1Cl` [Example 54, Methyl (2-(3-bromo-1-(3-chloropyridin-2-yl)-1H-pyrazole-5-carboxamido)-3-methylphenyl)carbamate]: the pest or weed control at 100 ppm is no less than 80%.
In the case of `COC(=O)Nc1cc([N+](=O)[O-])cc(C)c1NC(=O)c1cc(Br)nn1-c1ncccc1Cl` [Example 55, Methyl (2-(3-bromo-1-(3-chloropyridin-2-yl)-1H-pyrazole-5-carboxamido)-3-methyl-5-nitrophenyl)carbamate], the pest or weed control at 100 ppm under setting [1] is no less than 80%.
The same measure, in the same setting: in the case of `COC(=O)Nc1cc(C#N)cc(C)c1NC(=O)c1cc(Cl)nn1-c1ncccc1Cl` [Example 56, methyl (2-(3-chloro-1-(3-chloropyridin-2-yl)-1H-pyrazole-5-carboxamido)-5-cyano-3-methylphenyl)carbamate] it was no less than 80%.
As for `COC(=O)Nc1cc(C#N)cc(C)c1NC(=O)c1cc(C#N)nn1-c1ncccc1Cl` [Example 57, methyl (2-(1-(3-chloropyridin-2-yl)-3-cyano-1H-pyrazole-5-carboxamido)-5-cyano-3-methylphenyl)carbamate], the pest or weed control at 100 ppm under setting [1] is no less than 80%.
With `COC(=O)Nc1cc(C#N)cc(C)c1NC(=O)c1cc(OC)nn1-c1ncccc1Cl` [Example 58, methyl (2-(1-(3-chloropyridin-2-yl)-3-methoxy-1H-pyrazole-5-carboxamido)-5-cyano-3-methylphenyl)carbamate], the pest or weed control at 100 ppm under setting [1] was no less than 80%.
As for `COC(=O)Nc1cc(C#N)cc(C)c1NC(=O)c1cc(OCC(F)(F)F)nn1-c1ncccc1Cl` [Example 60, methyl (2-(3-(2,2,2-trifluoroethoxy)-1-(3-chloropyridin-2-yl)-1H-pyrazole-5-carboxamido)-5-cyano-3-methylphenyl)carbamate], the pest or weed control at 100 ppm under setting [1] is no less than 80%.
Same read-out and setting: in the case of `COC(=O)Nc1cc(C#N)cc(C)c1NC(=O)c1cc(C(F)(F)F)nn1-c1ncccc1Cl` [Example 61, methyl (2-(1-(3-chloropyridin-2-yl)-3-(trifluoromethyl)-1H-pyrazole-5-carboxamido)-5-cyano-3-methylphenyl)carbamate] it was no less than 80%; in that of `COC(=O)Nc1cc(C#N)cc(C)c1NC(=O)c1cc(C(F)(F)F)nn1-c1ccccc1Cl` [Example 62, methyl (2-(1-(2-chlorophenyl)-3-(trifluoromethyl)-1H-pyrazole-5-carboxamido)-5-cyano-3-methylphenyl)carbamate], no less than 80%.
On to `CCOC(=O)Nc1cc(C#N)cc(C)c1NC(=O)c1cc(Br)nn1-c1ncccc1Cl` [Example 63, ethyl (2-(3-bromo-1-(3-chloropyridin-2-yl)-1H-pyrazole-5-carboxamido)-5-cyano-3-methylphenyl)carbamate], for which the pest or weed control at 100 ppm under setting [1] is no less than 80%.
The same measure, in the same setting: the value for `Cc1cc(C#N)cc(NC(=O)OCCCl)c1NC(=O)c1cc(Br)nn1-c1ncccc1Cl` [Example 64, 2-chloroethyl (2-(3-bromo-1-(3-chloropyridin-2-yl)-1H-pyrazole-5-carboxamido)-5-cyano-3-methylphenyl)carbamate] was no less than 80%.
